System: HD3 with inactivated substrate (rA to dA at cleavage site) (DNA, ribozyme, dA in place of rA at the cleavage site of the substrate strand) CATCTCTTAACGGGGCTGTGCGGCTAGGAAGTAATAGTGAG/CTCACTATAGGAAGAGATG
Test: CD titration at 267 nm
Conditions: 500 mM Na+ (NaCl), 500 mM K+ (KCl), no Mg2+; 50 mM HEPES pH 7.5, 0.5 mM EDTA, 25 °C; 30 µM DNA; 0-10 mM histidine

- Ka(CD): ~ 2.0 × 10^3 M^-1
Structure (SMILES): N[C@@H](Cc1cnc[nH]1)C(=O)O

From article PMC11594175 (2024)
